Laboratory results: publication PMC6066355, “Probing the binding site of novel selective positive allosteric modulators at the M1 muscarinic acetylcholine receptor” (Biochemical Pharmacology, 2018)
Substitutions are numbered along the chain they refer to.

Assays:
Assay type in all cases: cell-based
F77^2.56I M1 mAChR = target: T1, F77^2.56I M1 mAChR (Homo sapiens, UniProt P11229, F77I); test: IP-One (IP1) accumulation assay, FlpIn CHO cells; conditions: for LogτB (logarithm of functional efficacy of the modulator): corrected for receptor expression levels relative to WT; for τB (functional efficacy of the modulator, antilog in brackets): corrected for receptor expression relative to WT; for Logαβ (logarithm of functional cooperativity between ACh and modulator): pKB constrained to Table 1, β constrained to 1
T1 construct: expressed in transfected cells
T1 sequence (P11229 1-460 F77I): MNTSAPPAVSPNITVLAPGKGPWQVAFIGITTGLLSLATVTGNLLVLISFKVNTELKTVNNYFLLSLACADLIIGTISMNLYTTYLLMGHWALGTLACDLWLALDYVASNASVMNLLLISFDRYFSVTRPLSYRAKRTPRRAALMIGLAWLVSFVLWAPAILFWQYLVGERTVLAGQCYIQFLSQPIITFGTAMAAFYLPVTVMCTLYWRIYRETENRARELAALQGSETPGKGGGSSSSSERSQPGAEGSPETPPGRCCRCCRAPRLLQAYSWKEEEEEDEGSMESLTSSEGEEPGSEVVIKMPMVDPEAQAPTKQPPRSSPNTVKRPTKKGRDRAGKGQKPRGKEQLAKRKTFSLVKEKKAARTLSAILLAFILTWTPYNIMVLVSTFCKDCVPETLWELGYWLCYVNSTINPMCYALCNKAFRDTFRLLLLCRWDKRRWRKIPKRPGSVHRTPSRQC
Procedure: (§1) The IP-One assay kit (Cisbio) was used for the direct quantitative measurement of myo-Inositol 1 phosphate (IP1). Cells were seeded at 25,000 per well into 96-well transparent cell culture plates and incubated overnight at 37 °C. […] Cells were then lysed with IP1 lysis buffer (50 mM HEPES pH 7.0, 15 mM KF, 1.5% V/V Triton-X-100, 3% V/V FBS, 0.2% W/V BSA), and IP1 levels were measured by incubation of cell lysates with FRET reagents (the cryptate-labeled anti-IP1 antibody and the d2-labeled IP1 analogue) for 1 h at 37 °C. […] Signals were expressed as the FRET ratio: F = (fluorescence665 nm/fluorescence590 nm) × 10^4, and normalized to the response to maximal ACh concentration (100 µM).
(§2) (Eq. (2)) was used:(2) Y=Basal+Em-Basal/1+KA+A/τA where Em is the maximal possible system response and Basal is the response in the absence of agonist. [A] denotes the concentration of ligand, and KA represents its equilibrium dissociation constants. τ denotes the intrinsic efficacy of the ligand, which incorporates the total receptor density and the efficiency of stimulus-response coupling.
(§3) Functional interaction studies between orthosteric agonists and allosteric modulators in IP1 assays were analysed using the following operational model of allosterism and agonism (Eq. (3)):(3) E=Basal+Em-BasalAKB+αβB+τBBEC50/EC50KB+B+AKB+αβB+τBBEC50 where Em is the maximal possible system response, and Basal is the response in the absence of agonist. KB is the equilibrium dissociation constant of allosteric ligand, and EC50 is the concentration of orthosteric agonist required to achieve half maximal response. [A] and [B] denote concentrations of orthosteric and allosteric ligands, respectively. α and β denote allosteric effects on orthosteric ligand binding affinity and efficacy, respectively, and τB denotes the efficacy of allosteric ligand. This model assumes that ACh is a full agonist at the receptor in both the absence/presence of modulator and/or there is no efficacy modulation (i.e., β = 1).

Y82^2.61A M1 mAChR = target: T2, Y82^2.61A M1 mAChR (Homo sapiens, UniProt P11229, Y82A); test: IP-One (IP1) accumulation assay, FlpIn CHO cells; conditions: for LogτB (logarithm of functional efficacy of the modulator): corrected for receptor expression levels relative to WT; for τB (functional efficacy of the modulator, antilog in brackets): corrected for receptor expression relative to WT; for Logαβ (logarithm of functional cooperativity between ACh and modulator): pKB constrained to Table 1, β constrained to 1
T2 construct: expressed in transfected cells
T2 sequence (P11229 1-460 Y82A): T1 sequence (P11229 1-460 F77I) with I77F, Y82A
Procedure: as §1, §2, §3

W400^7.35A M1 mAChR = target: T3, W400^7.35A M1 mAChR (Homo sapiens, UniProt P11229, W400A); test: IP-One (IP1) accumulation assay, FlpIn CHO cells
T3 construct: expressed in transfected cells
T3 sequence (P11229 1-460 W400A): T1 sequence (P11229 1-460 F77I) with I77F, W400A
Procedure: as §1, §2, §3

WT M1 mAChR = target: T4, WT M1 mAChR (Homo sapiens, UniProt P11229); test: Receptor alkylation assay: IP1 accumulation after PBZ pre-treatment, CHO-hM1 cells; conditions: for Effect on maximal ACh response (potency of ACh increased): 10 µM PBZ pre-treatment, ACh a partial agonist; for αβ (functional cooperativity with ACh, antilog in brackets) / Logαβ (logarithm of functional cooperativity between ACh and modulator): alkylated with PBZ (10 µM pre-treatment); for Logαβ (logarithm of functional cooperativity between ACh and modulator): β constrained to 1
T4 construct: expressed in transfected cells
T4 sequence (P11229 1-460): T1 sequence (P11229 1-460 F77I) with I77F
Procedure: as §1
Cells were pre-treated with vehicle or the irreversible orthosteric alkylating agent, phenoxybenzamine (PBZ) for 30 min at 37 °C, 5% CO2 to reduce functional receptor availability, followed by three extensive washes with PBS. IP1 accumulation assays were then performed as described above.
as §3

SMILES	αβ (functional cooperativity with ACh, antilog in brackets) (F77^2.56I M1 mAChR)	LogτB (logarithm of functional efficacy of the modulator) (F77^2.56I M1 mAChR)	τB (functional efficacy of the modulator, antilog in brackets) (F77^2.56I M1 mAChR)	Logαβ (logarithm of functional cooperativity between ACh and modulator) (F77^2.56I M1 mAChR)	αβ (functional cooperativity with ACh, antilog in brackets) (Y82^2.61A M1 mAChR)	LogτB (logarithm of functional efficacy of the modulator) (Y82^2.61A M1 mAChR)	τB (functional efficacy of the modulator, antilog in brackets) (Y82^2.61A M1 mAChR)	Logαβ (logarithm of functional cooperativity between ACh and modulator) (Y82^2.61A M1 mAChR)	Modulation of ACh-stimulated IP1 accumulation (W400^7.35A M1 mAChR)	Effect on maximal ACh response (potency of ACh increased) (WT M1 mAChR)	αβ (functional cooperativity with ACh, antilog in brackets) (WT M1 mAChR)	Logαβ (logarithm of functional cooperativity between ACh and modulator) (WT M1 mAChR)
Cn1cc(-c2ccc(COc3ccccc3-c3cc(=O)n(C4CCCCC4O)cn3)cc2)cn1 (stereo not drawn) [MIPS1780, 3-(2-hydroxycyclohexyl)-6-(2-((4-(1-methyl-1H-pyrazol-4-yl)-benzyl)oxy)phenyl)pyrimidin-4(3H)-one]	63	1.52 ± 0.06	33	1.80 ± 0.15	91	1.85 ± 0.12	71	1.96 ± 0.14	abolished	no effect on the maximal agonist response	117	2.07 ± 0.13
Cn1cc(-c2ccc(Cn3cc(C(=O)N[C@H]4CCCC[C@@H]4O)c4c(F)cc(F)cc43)cn2)cn1 [VU6004256, 4,6-difluoro-N-(1S,2S)-2-hydroxycyclohexyl-1-((6-(1-methyl-1H-pyrazol-4-yl)pyridine-3-yl)methyl)-1H-indole-3-carboxamide]	51	1.43 ± 0.06	27	1.71 ± 0.15	19	0.50 ± 0.10	3	1.29 ± 0.10	abolished	no effect on the maximal agonist response	91	1.96 ± 0.22
Cc1cnc(C(=O)N[C@H]2CCOC[C@@H]2O)cc1Cc1ccc(-c2cscn2)cc1 [PF-06767832, N-((3R,4S)-3-hydroxytetrahydro-2H-pyran-4-yl)-5-methyl-4-(4-(thiazol-4-yl)benzyl)pyridine-2-carboxamide]	112	1.51 ± 0.07	32	2.05 ± 0.13	46	0.95 ± 0.12	9	1.66 ± 0.12	abolished	no effect on the maximal agonist response	144	2.16 ± 0.11
